Test results reported in PMC7996082, “The translocator protein ligands as mitochondrial functional modulators for the potential anti-Alzheimer agents” (Journal of Enzyme Inhibition and Medicinal Chemistry, 2021).
Like-named read-outs stand apart in the source and are kept apart here.

Columns and labels:
[1] = target: TSPO; details: cited from earlier work
[2] = MTT assay: HT22 cell viability with compound alone; format: cell-based, mouse; details: mouse, HT22 cells; HT22 cell viability after 24 h of treatment with 5 μM compound, no Aβ
Method: (§1) To a clear 96-well plate (FALCON), the cultured HT-22 cells were seeded in a number of 5,000 per well 24 h prior to the assay. A solution of each test compound (5 µM, 25 µL) was added to each well. After 24 h of incubation at 37 °C, the cells were treated with a 10 µL of MTT solution (3–(4,5-dimethylthiazol-2-yl)-2,5-diphenyltetrazolium bromide, Sigma-Aldrich), incubated for 2 h at 37 °C, and were treated with 135 µL of MTT solubilising solution (10% Triton-X 100 in isopropanol with 0.1 M HCl) for 2 h at 37 °C. The % values of cell viability were determined by using the optical density (OD) values at 560 nm, and normalised by taking the vehicle control (5 µM of DMSO) as […].

[3] = system: HT22 cells treated with Aβ; assay: Cellular ROS assay (DCFDA): inhibition of Aβ-induced ROS generation; format: cell-based, mouse; details: for inhibition at 5 µM: Mus musculus, HT-22, 5 μM compound; for ROS Inhibition (%): 5 μM compound
Method: Among 56 compounds, 23 compounds were selected and further tested for the luciferase-based ATP assay. […] Thus, we chose these two compounds and further evaluated their biological activity by measuring cell viability and reactive oxygen species (ROS) production. The effects on cell viability of each compound under Aβ-induced cytotoxicity were determined by measuring the metabolic activity of NAD(P)H-dependent cellular oxidoreductases using the 3–(4,5-dimethylthiazol-2-yl)-2,5-diphenyl-tetrazolium bromide (MTT) dye. To measure cellular ROS levels, we used a fluorescence indicator, 2′,7′-dichlorofluorescein diacetate (DCFDA), and calculated the percent inhibition of ROS generation by applying the same method used for MTT assays. Compound 7 inhibited Aβ-induced ROS generation (97% at 5 µM) almost to the level of the untreated control (Table 1). […] On the basis of the in vitro activity, we selected compound 7 as the best hit from the initial screening library.

[4] = system: acute AD model mice (Aβ1-42 ICV injected ICR mice); assay: Y-maze spontaneous alternation test in acute AD model mice; format: in vivo, mouse; details: 30 mg/kg daily, 6 days, i.p.
Method: (§2) The acute AD mice model was prepared by administration of Aβ1-42 solution (10% DMSO/90% PBS) to male ICR mice (6 weeks old, 30 − 33 g) via intracerebroventricular (ICV) injection (Aβ1-42 dose: 500 pmol/mouse) as described previously. The wild type mice (B6C3F1) and double APP/PS1 transgenic mice (Tg AD mice model; APPswe/PSEN1dE9) were purchased from Jackson Laboratory (Bar Harbour, ME, USA). The Tg AD model mice were 11 months old at the beginning of the behaviour test, and were housed for 1 month in a room under controlled temperature and fed ad libitum. The behaviour tests were conducted during daytime in air-controlled and soundproof experiment room. The animal experiments were abided by the guidelines of the Institutional Animal Care and Use Committee of Korea Institute of Science and Technology.
To the mice of the acute AD model (n = 7 per group), each test compound (test compound in 20% cyclodextrin, 30 mg/kg) was […] injected daily for 6 days. The Y-maze spontaneous alternation test was performed 1 day after the administration of each test compound. The Y maze was made of three equally spaced black plastic arms (40 L × 10 W × 12 H cm) positioned at an equal angle. Each mouse was placed at the end of one arm and allowed to move freely through the maze for 8 min, and the sequence of arm entries was recorded. The arm entry of the mouse was counted when the all four limbs were within an arm. A set of entries into all three arms is considered as a spontaneous alternation. The spontaneous alternation (%) was calculated by the following equation: Spontaneous alternation (%)=100x[number of alternations/(total number of arm entries – 2)]
We evaluated in vivo activity of 7 and 14 in an acute AD mouse model. The acute AD model mice were generated by the administration of Aβ1-42 peptide (500 pmol) according to the previously reported method, and each compound (30 mg/kg daily) was administered intraperitoneally for 6 days. Piracetam (30 mg/kg daily) was also administered in parallel for comparison. The Y-maze spontaneous alternation tests were performed to measure the recovery of learning and memory deficit in acute AD model mice[38]^,[39]. […] We believe that the treatment of 7 was beneficial for ameliorating Aβ-induced cognitive impairments.

[5] = system: transgenic AD model mice (APPswe/PSEN1dE9); assay: Y-maze spontaneous alternation test in transgenic AD model mice; format: in vivo, mouse; details: Tg APPswe/PSEN1dE9 mice, 30 mg/kg daily, 1 month, PO
[6] = system: transgenic AD model mice (APPswe/PSEN1dE9); assay: Contextual fear conditioning test in transgenic AD model mice; format: in vivo, mouse; details: Tg AD model mice, 30 mg/kg daily, 1 month, PO; 30 mg/kg
Method: as §2
To the Tg mice of the AD model (n = 7 per group), each test compound (30 mg/kg) was orally administrated daily for 1 month. […] Freezing response was measured by the fear conditioning system without application of CS or US.
In addition, we assessed recovery effects of compound 7 by performing contextual fear conditioning tests.[40] Healthy mice show higher number of total freezing, which is an index of fear learning and memory of rodents; therefore, the number of total freezing responses under fear-relevant stimuli was measured with the compound-treated Tg AD model mice. […]

[7] = system: HT-22 (mouse hippocampal cells) cells treated with Aβ; assay: JC-1 assay: recovery of mitochondrial membrane potential (ΔΨm) after Aβ; format: cell-based; details: 5 μM compound, 5 μM Aβ, HT22 cells; 0% = Aβ-induced damaged condition, 100% = normal condition
Method: Thirty thousand HT-22 cells per well were seeded into a clear 96-well plate (FALCON) at 200 µL per well one day prior to assay. 750 mM of JC-1 (Stratagene) in DMSO stock solution was dissolved into phenol red-free Opti-MEM (GIBCO) medium to make final concentration of 7.5 mM JC-1 per well. Medium was removed from the plate, and 100 µL per well of JC-1 was added. The sample plates were incubated for 1 h and 15 min at 37 °C and washed twice with 100 µL per well of PBS. Subsequently, cells were treated with a 25 µL solution of each compound at 10 µM in Opti-MEM and incubated at 37 °C for 10 min followed by addition of a 25 µL of Aβ (American peptide, 1-42) solution at 10 µM. Fluorescence was measured at every one hour for three hours at ex/em 530 nm/580 nm (“red”) and ex/em 485 nm/530 nm (“green”) by using the Flexstation® 3 (Molecular Devices, USA) reader. The ratio of green to red fluorescence was calculated and normalised by taking the percent changes using vehicle control as 100%.
The selected 56 compounds were purchased and tested by in vitro cell-based assays. Four different cell-based assays (JC-1, MTT, ATP production, and cellular ROS assays) were carried out sequentially. First, the JC-1 assay was performed to screen all 56 compounds, VH001–VH056 (Supplementary Table S1). Since mitochondrial membrane depolarisation is one of the distinct signs of mPTP opening, the mitochondrial uptake of a fluorescent JC-1 dye (5,59,6,69-tetrachloro-1,19,3,39-tetraethylbenzimidazolocarbocyanine iodide) was measured to evaluate the effects of each compound on the mitochondrial membrane potential (ΔΨm). HT22 cells, a mouse hippocampal cell line, were treated with 5 µM of Aβ, incubated with each compound at the same concentration of 5 µM, and subsequently treated with JC-1. On the basis of changes in the red/green fluorescence intensity ratio between the cells treated with Aβ and control, the percent recovery of ΔΨm for each compound was calculated and normalised to the ΔΨm of healthy cells as 100%.
Compd Structure ∆Ψm at 5 Compd Structure ∆Ψm at 5 […]
a After the treatment of each compound (5 μM) and Aβ (5 μM) in HT22 cell, the increase of fluorescence ratio (green/red) was measured and normalized by taking the change of the ratio between 0% (Aβ-induced damaged condition) and 100% (normal condition in the absence of Aβ).

[8] = system: HT22 cells; assay: MTT assay: HT22 cell viability with compound alone; format: cell-based, mouse; details: HT22 cell viability after 24 h of treatment with 5 μM compound, no Aβ
Method: as §1

Structure (SMILES): CN1C(=O)CN=C(c2ccc(Cl)cc2)c2cc(Cl)ccc21 [Compound 5, 7-chloro-5–(4-chlorophenyl)-1-methyl-1,3-dihydro-2H-benzo[e][1,4]diazepin-2-one]
- Ki ([1]; TSPO binding affinity ref 32): 1.02 nM

Structure (SMILES): NC(=O)CN1CCCC1=O [Piracetam, piracetam, reference compound]
- viability at 24 h, 5 µM [2]: 132%
- inhibition at 5 µM [3]: 129%
- Recovery of Y-maze spontaneous alternations [4]: 20%
- Recovery of Y-maze spontaneous alternations [5]: 33%
- Contextual fear conditioning: percent recovery of freezing [6]: −2%

Structure (SMILES): CCCCN(CCCC)C(=O)Cc1c(-c2ccc(Cl)cc2)nc2c(Cl)cc(Cl)cn12 [Compound 2, N,N-dibutyl-2–(6,8-dichloro-2–(4-chloro-phenyl)imidazo[1,2-a]pyridin-3-yl)acetamide]
- Ki ([1]; TSPO binding affinity ref 30): 2.68 nM

Structure (SMILES): COc1ccc(CNC(=O)C(c2cccnc2)N(C(=O)c2csnn2)c2ccc(C(C)(C)C)cc2)cc1 (stereo not shown) [Compound 8]
- viability at 24 h, 5 µM [2]: 34%
- inhibition at 5 µM [3]: -10%

Structure (SMILES): CCOc1ccc(-n2c(SCC(C)C)nc3sc4c(c3c2=O)CCN(C(C)=O)C4)cc1 [Compound 11]
- ROS Inhibition (%) [3]: −234%

Structure (SMILES): COc1ccc(OC)c(CN(C(C)=O)c2cc(F)ccc2Oc2ccccc2)c1 [Compound 4, N-(2,5-dimethoxybenzyl)-N-(5-fluoro-2-phenoxyphenyl)acetamide]
- IC50 ([1]; TSPO binding affinity ref 31): 1.6 nM

Structure (SMILES): CCN(CCNC(=O)c1cc(-c2cccnc2)nc2ccccc12)c1ccccc1 [VH026]
- Recovery of ΔΨm (%) [7]: 49%

Structure (SMILES): CCOc1ccc(-c2cc(C(=O)NCCCN(CC)c3ccccc3)c3ccccc3n2)cc1 [VH024]
- Recovery of ΔΨm (%) [7]: 74%

Structure (SMILES): CC(=O)N(Cc1ccccc1OC(C)C)c1ccc(Cl)cc1Oc1ccccc1 [Compound 3, N-(4-chloro-2-phenoxyphenyl)-N-(2-isopropoxybenzyl)acetamide]
- IC50 ([1]; TSPO binding affinity ref 31): 0.92 nM

Structure (SMILES): CCc1ccc(-c2cc(C)no2)cc1S(=O)(=O)Nc1cc(OC)cc(OC)c1 [VH021]
- Recovery of ΔΨm (%) [7]: 42%

Structure (SMILES): CCOc1ccc(-n2c(SC)nc3sc4c(c3c2=O)CCN(C(C)=O)C4)cc1 [Compound 10]
- MTT Viability (%) [8]: 87%
- ROS Inhibition (%) [3]: −177%

Structure (SMILES): CC(C)CN(CCCNC(=O)c1cc(Nc2ccccc2)nc2ccccc12)CC(C)C [VH027]
- Recovery of ΔΨm (%) [7]: 25%

Structure (SMILES): CCCCCCN(CCCCCC)C(=O)Cc1c(-c2ccc(F)cc2)[nH]c2ccccc12 [Compound 1, 2–(2-(4-fluorophenyl)-1H-indol-3-yl)-N,N-dihexylacetamide]
- Ki ([1]; TSPO binding affinity ref 29): 3.25 nM

Structure (SMILES): COc1ccc(CNC(=O)c2cc(OCc3ccc(C)cc3)nc3ccccc23)c(OC)c1 [VH028]
- Recovery of ΔΨm (%) [7]: 51%

Structure (SMILES): CCOc1ccc(-c2cc(C(=O)NCC(C)CN(CC)CC)c3ccccc3n2)cc1 (stereo not shown) [VH030]
- Recovery of ΔΨm (%) [7]: 60%
